The values that follow come from patent US10800755B2, “2,6-disubstituted pyridine derivative” (Sumitomo Dainippon Pharma Co., Ltd., priority 2017, dated 2020).

pIC50, pKi: −log10 of the molar value.

The target in one data set is hERG channel (Homo sapiens (Human), UniProt Q12809). Put plainly: Test 5-1: activity for inhibiting hERG channel (whole-cell patch clamp, hERG-CHO cell, Qpatch). The class given is cell-based. To be noted: read-out: hERG inhibition IC50. As to the method: Test 5-1: Evaluation of Activity for Inhibiting hERG Channel
The activity of the present compound for inhibiting hERG channel was measured by whole-cell patch clamp method with auto patch clamp system, using CHO cell wherein hERG channel involved in human rapidly activating delayed rectifier potassium current (IKr) was forcibly expressed.
hERG-CHO cell purchased from ChanTest was incubated at 37° C. in a CO2 incubator, and the cell was exfoliated from the flask with trypsin to prepare a cell suspension, shortly before the hERG current measurement.
Extracellular fluid: 2 mmol/L CaCl2, 1 mmol/L MgCl2, 10 mmol/L HEPES, 4 mmol/L KCl, 145 mmol/L NaCl, 10 mmol/L glucose
Intracellular fluid: 5.4 mmol/L CaCl2, 1.8 mmol/L MgCl2, 10 mmol/L HEPES, 31 mmol/L KOH, 10 mmol/L EGTA, 120 mmol/L KCl, 4 mmol/L Na2-ATP
Test compound solution: The test compound was dissolved in DMSO by adjusting the concentration to 2 mmol/L or 20 mmol/L to prepare each test compound solution. […] (Measurement of Current Value and Data Analysis)
The cell suspension, the extracellular fluid, the intracellular fluid, and the measurement plate were set in an auto patch clamp system, and the hERG current was measured by whole-cell patch clamp method. […] Each pulse interval was 15 seconds. The data analysis was carried out with Qpatch Assay Software (Biolin Scientific). The test was carried out applying increscently 4 concentrations of each test compound, and the average of the peak tail currents that were obtained by the last 3 stimulations in each applied concentration was determined to be the evaluated data. By using the current inhibition rate for the pre-applied current at each concentration of each test compound, IC50 value was calculated by Hill equation with the software.
(Block of hERG is tested as a sign of cardiac risk.)

Data set [1] in a line: Test 4-2: predictive test of human half-life (monkey distribution volume, serum unbound fraction, Test 3-2 stability). To be noted: in vivo, predicted using Test 3-2 metabolic stability. As to the method:
Test 4-2: Predictive Test of Human Half-Life
(§1) 0.01 mol/L of the present compound in aqueous hydrochloric acid solution was parenterally administered to cynomolgus monkey. 5 minutes, 15 minutes, 30 minutes, 1 hour, 2 hours, 4 hours, 6 hours, and 24 hours after the administration, the blood was collected. The plasma was obtained from the collected blood, the drug concentration in the plasma was measured with a LC-MS, and the monkey distribution volume was calculated from the transition of the concentrations. The unbound fraction rate of the present compound in serum of human and monkey was measured by equilibrium dialysis method.
Using the monkey distribution volume, the unbound fraction rate in serum of human and monkey, and the result of the metabolic stability of human liver microsome which was obtained in Test 3-2, the half-life in human was calculated according to the formula below. “Human distribution volume”=“monkey distribution volume”×“unbound fraction rate in serum of human”/“unbound fraction rate in serum of monkey” “Human hepatic clearance”=(“human hepatic blood flow”×“unbound fraction rate in serum of human”×56.7×“metabolic stability of human liver microsome”)/(“human hepatic blood flow”+“unbound fraction rate in serum of human”×56.7×“metabolic stability of human liver microsome”) “Half-life in human”=0.693×“human distribution volume”/“human hepatic clearance”

The next data set deals with human D4 receptor (Homo sapiens (Human), UniProt P21917). Put plainly: Test 2: binding activity to human D4 receptor ([3H] dopamine, CHO cell membrane). To be noted: [3H] dopamine; read-out: D4 binding affinity (Ki value).
A further data set deals with ICR male mouse. Briefly: Test 7: marble-burying behavior test. Type of data set: in vivo. The protocol:
Test 7: Marble-Burying Behavior Test
The effect of the present compound for obsessive-compulsive disorder-like behavior was evaluated in a manner mentioned below.
450-500 g of paper floorcloth was beded in a plastic cage (floor area: 778 cm^2), and 20 glass marbles were set on the paper floorcloth at regular intervals. To a 5-week-old ICR male mouse, the present compound was intraperitoneally administered with saline solution. 15 minutes after the administration, the mouse was made to softly enter the corner of the cage and move freely in the cage for 15 minutes. Then the mouse was taken out from the cage. The number of the marbles that were buried in the floorcloth was counted. The numbers in the solvent-administration group and the present compound-administration group were compared to be statistically processed.

Data set [2] in a line: Test 4-1: predictive test of human half-life (monkey distribution volume, serum unbound fraction, Test 3-1 stability). To be noted: in vivo, predicted using Test 3-1 metabolic stability. The protocol: Test 4-1: Predictive Test of Human Half-Life
as §1
Using the monkey distribution volume, the unbound fraction rate in serum of human and monkey, and the result of the metabolic stability of human liver microsome which was obtained in Test 3-1, the half-life in human was calculated according to the formula below. “Human distribution volume”=“monkey distribution volume”×“unbound fraction rate in serum of human”/“unbound fraction rate in serum of monkey” “Human hepatic clearance”=(“human hepatic blood flow”×“unbound fraction rate in serum of human”×56.7×“metabolic stability of human liver microsome”)/(“human hepatic blood flow”+“unbound fraction rate in serum of human”×56.7×“metabolic stability of human liver microsome”) “Half-life in human”=0.693×“human distribution volume”/“human hepatic clearance”

A short description of data set [3]: Test 3-1: metabolic stability test of human liver microsome (0.1 mg/mL). Type of data set: in vitro ADME. To be noted: test compound 0.1 μmol/L, 37° C., 30 minutes. In a few lines:
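Compound at 0.1 μmol/L incubated 30 min at 37 °C with human liver microsomes (0.1 mg/mL) and NADPH (3.2 mmol/L) in 25 mmol/L phosphate buffer, pH 7.4. Remaining parent measured by LC-MS; stability given as −ln(residual ratio)/time/microsome concentration (mL/min/mg protein).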

human D4 receptor, sequence (P21917 whole entry): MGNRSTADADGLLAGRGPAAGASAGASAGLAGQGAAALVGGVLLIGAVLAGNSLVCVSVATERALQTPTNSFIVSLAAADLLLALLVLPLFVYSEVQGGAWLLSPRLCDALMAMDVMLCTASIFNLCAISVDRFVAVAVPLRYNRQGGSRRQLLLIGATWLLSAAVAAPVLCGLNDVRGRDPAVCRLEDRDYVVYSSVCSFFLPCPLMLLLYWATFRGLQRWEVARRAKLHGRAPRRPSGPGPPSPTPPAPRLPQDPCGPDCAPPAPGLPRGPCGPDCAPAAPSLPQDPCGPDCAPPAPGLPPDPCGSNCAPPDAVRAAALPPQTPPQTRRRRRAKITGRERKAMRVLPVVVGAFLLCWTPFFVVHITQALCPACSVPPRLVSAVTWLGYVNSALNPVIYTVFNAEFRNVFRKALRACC
hERG channel, sequence (Q12809 whole entry): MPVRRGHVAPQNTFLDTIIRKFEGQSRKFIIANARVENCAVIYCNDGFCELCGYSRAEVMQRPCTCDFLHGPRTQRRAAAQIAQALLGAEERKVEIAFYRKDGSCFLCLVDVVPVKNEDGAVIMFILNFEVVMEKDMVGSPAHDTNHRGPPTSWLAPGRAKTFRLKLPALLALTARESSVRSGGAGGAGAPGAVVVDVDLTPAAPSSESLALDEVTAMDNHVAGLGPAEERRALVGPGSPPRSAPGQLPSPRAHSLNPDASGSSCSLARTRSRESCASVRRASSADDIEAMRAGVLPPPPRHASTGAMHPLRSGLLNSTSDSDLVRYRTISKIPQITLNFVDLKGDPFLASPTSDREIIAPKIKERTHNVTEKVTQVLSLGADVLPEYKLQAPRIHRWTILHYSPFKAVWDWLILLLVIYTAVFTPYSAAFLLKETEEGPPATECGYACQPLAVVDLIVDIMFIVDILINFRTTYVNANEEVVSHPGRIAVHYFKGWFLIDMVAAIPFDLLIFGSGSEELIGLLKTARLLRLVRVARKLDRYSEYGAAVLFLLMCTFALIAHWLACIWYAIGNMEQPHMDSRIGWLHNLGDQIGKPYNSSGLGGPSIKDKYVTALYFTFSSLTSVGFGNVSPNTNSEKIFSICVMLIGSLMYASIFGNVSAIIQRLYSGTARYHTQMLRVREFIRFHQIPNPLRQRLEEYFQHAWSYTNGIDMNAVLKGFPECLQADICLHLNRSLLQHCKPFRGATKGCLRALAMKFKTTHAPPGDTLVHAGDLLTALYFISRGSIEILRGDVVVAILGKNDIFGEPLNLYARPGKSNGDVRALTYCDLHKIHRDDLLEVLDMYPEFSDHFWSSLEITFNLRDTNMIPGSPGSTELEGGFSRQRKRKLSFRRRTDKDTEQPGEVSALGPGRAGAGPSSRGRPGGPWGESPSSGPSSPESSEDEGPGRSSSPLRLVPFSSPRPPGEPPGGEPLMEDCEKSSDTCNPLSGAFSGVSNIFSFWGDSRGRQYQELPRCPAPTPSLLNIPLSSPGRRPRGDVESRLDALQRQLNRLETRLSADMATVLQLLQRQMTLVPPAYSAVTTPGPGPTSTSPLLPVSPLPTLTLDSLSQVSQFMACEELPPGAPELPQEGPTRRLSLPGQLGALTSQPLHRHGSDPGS

As a reminder, the pIC50 is −log10 of the IC50, conventionally taken in molar units. As a reminder, the half-life is the time needed for the level to fall by half in the phase considered. Broadly, the pKi is the negative decadic logarithm of the Ki, by convention in mol/L. For the compound `O=C(NCCN1CCC(c2cccc(C(F)(F)F)n2)CC1)C1CCC(F)(F)CC1` [Example 1, 4,4-Difluoro-N-(2-{4-[6-(trifluoromethyl)pyridin-2-yl]piperidin-1-yl}ethyl)cyclohexane-carboxamide], the pIC50 at hERG channel was 5.60. In addition, the half-life was 24 h in data set [1] and 11 h in data set [2]. Also, the pKi on human D4 receptor is 7.96. In the data set on ICR male mouse (combination with escitalopram, 0.3 mg/kg administration), the “enhancement effect of decreasing the number of the buried marbles compared with single administration of escitalopram” value came to 43.8%. The “decrease of the buried marbles for the solvent-administration group” value in the data set with ICR male mouse (intraperitoneal, 0.5 mg/kg administration) is 44.8%. In addition, the “Metabolic stability of human liver microsome” value in data set [3] is given as 0.073 mL/min/mg protein.
